Assay type in all cases: cell-based
Assay [1] relates to LNCaP. The assay can be described thus: Cell growth inhibition assay, prostate cancer cell line LNCaP (medium with 10 ng/mL IL-6). The settings on record: Homo sapiens, medium supplemented with 10 ng/mL of IL-6, 10,000 cells/well.
For assay [2], the target named is T1, STAT3 (Homo sapiens, UniProt P40763).
T1 construct: plasmid pSTAT3-TA-luc), which contains a stably operating STAT3 promoter; endogenous in cells
As to the kind of experiment: STAT3 reporter gene assay (luciferase), LNCaP stable cell line (pSTAT3-TA-luc), IL-6 stimulation. Put shortly: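 LNCaP cells stably carrying pSTAT3-TA-luc, in RPMI1640 with 3% DCC-FBS, were treated with compound and then stimulated with 10 ng/mL IL-6 for 24–48 h at 37 °C. Luciferase activity was measured in lysates. A parallel plate measured viability by CellTiter-Glo, with stimulated 0.1% DMSO wells as the positive control.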
Background: In a reporter assay the amount or activity of a reporter protein is the signal.

For assay [3], the system named is AGS. As to the kind of experiment: Cell growth inhibition assay, stomach cancer cell line AGS. The settings on record: Homo sapiens; AGS stomach cancer cell line, 3,000 cells/well. The method, then:
The inhibitory effects of the compounds of the present invention against the growth of cancer cells were evaluated as shown below. The cancer cell lines including stomach cancer cell line (AGS), breast cancer cell lines (MDA-MB-231, MDA-MB-468, and BT-549), prostate cancer cell lines (LNCaP and DU-145), colon cancer cell line (HCT116), ovarian cancer cell line (SW626), liver cancer cell line (Hep3B), kidney cancer cell line (ACHN), lung cancer cell line (NCI-H23) and blood cancer cell lines (HEL92.1.7 and U266) were cultured under the protocol provided by each supplier. A medium supplemented with 10 ng/mL of IL-6 was used for LNCaP, a prostate cancer cell line, when treated with a drug. Each type of cells to be used in experiments were sub-cultured in a 96-well plate by counting the exact number of cells using Tali™ Image-based Cytometer (Life Technologies). In a 96-well plate, AGS, HCT116, and DU-145 were employed with 3,000 cells/well; NCI-H23, SW626, Hep3B, ACHN, BT-549, MDA-MB-231, HEL92.1.7, and U266 were employed with 5,000 cells/well; and LNCaP and MDA-MB-468 were employed with 10,000 cells/well. The cells were treated with the compounds listed in Examples which were diluted in various concentrations. Upon completion of the compounds treatment, AGS, HCT116, SW626, DU145, NCI-H23, Hep3B, ACHN, BT-549, LNCaP, HEL92.1.7, and U266 cells were cultured at 37° C. under 5% CO2 for from 72 to 96 hours, and MDA-MB-231 and MDA-MB-468 cells were cultured at 37° C. in air for from 72 to 96 hours. Subsequently, the cells were observed under microscope and drug precipitation and particular findings were investigated and recorded. And then, the 96-well plate was placed at room temperature for 30 minutes, added with 20 μL/well of CellTiter-Glo solution (Cat No. G7573, Promega) and shaken for 10 minutes, followed by being subjected to the measurement using PHERAstar™ microplate reader (BMG LABTECH) according to the supplier's general luminometer protocol. Wells where only culture liquid added without cell plating were used as a negative control, whereas wells where culture liquid containing 0.1% DMSO instead of the compounds listed in Examples were used as a positive control.

22 compounds from patent US10562912B2 (C&C Research Laboratories, priority 2013, dated 2020) can be followed below.

Each structure is given as a SMILES string.

T1 sequence (P40763 whole entry): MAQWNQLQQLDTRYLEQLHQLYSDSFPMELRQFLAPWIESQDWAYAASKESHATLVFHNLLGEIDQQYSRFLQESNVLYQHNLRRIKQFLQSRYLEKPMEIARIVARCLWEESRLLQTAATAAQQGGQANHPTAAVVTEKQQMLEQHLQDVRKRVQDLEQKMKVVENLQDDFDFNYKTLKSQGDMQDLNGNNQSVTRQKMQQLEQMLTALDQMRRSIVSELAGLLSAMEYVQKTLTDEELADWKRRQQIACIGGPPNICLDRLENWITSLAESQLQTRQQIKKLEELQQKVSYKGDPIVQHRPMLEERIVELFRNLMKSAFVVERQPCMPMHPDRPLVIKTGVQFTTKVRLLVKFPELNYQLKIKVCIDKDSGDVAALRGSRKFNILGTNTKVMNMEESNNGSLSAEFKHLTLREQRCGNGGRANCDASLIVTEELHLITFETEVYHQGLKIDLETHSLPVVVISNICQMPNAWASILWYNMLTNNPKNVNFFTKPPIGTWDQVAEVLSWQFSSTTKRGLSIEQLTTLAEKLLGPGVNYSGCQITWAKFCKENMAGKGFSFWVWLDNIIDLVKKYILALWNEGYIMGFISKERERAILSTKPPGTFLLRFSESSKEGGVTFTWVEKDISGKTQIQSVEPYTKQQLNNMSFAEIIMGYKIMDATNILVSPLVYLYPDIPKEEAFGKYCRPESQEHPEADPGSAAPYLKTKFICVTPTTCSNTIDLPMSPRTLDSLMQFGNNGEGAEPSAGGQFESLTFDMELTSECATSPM

Broadly, the IC50 is the concentration at which inhibition is half-maximal. Consider `CNS(=O)(=O)Nc1ccc2cc(C(=O)Nc3cccc(-c4ccc(F)cc4F)c3)[nH]c2c1` [Example 257, N-(2′,4′-difluoro-[1,1′-biphenyl]-3-yl)-6-((N-methylsulfamoyl)amino)-1H-indole-2-carboxamide], for which the concentration for half-maximal inhibition (IC50) in assay [1] worked out at 2.8 µM; in assay [2] it was 3.5 µM; in assay [3], 11 µM.

Consider `Nc1ccc2[nH]c(C(=O)Nc3cccc(-c4ccccc4C(F)(F)F)c3)cc2c1` [Example 258, 5-amino-N-(2′-(trifluoromethyl)-[1,1′-biphenyl]-3-yl)-1H-indole-2-carboxamide], for which the IC50 came to 5.2 µM in assay [1], 2.7 µM in assay [2] and 16.3 µM in assay [3].

`CS(=O)(=O)Nc1ccc2c(c1)NC(C(=O)Nc1cccc(-c3ccc(F)cc3F)c1)C2` (stereo not drawn) [Example 261, N-(2′,4′-difluoro-[1,1′-biphenyl]-3-yl)-6-(methylsulfonamido)indoline-2-carboxamide]: the concentration for half-maximal inhibition (IC50) is 2.9 µM in assay [1], 2.4 µM in assay [2] and 28.4 µM in assay [3].

For `CS(=O)(=O)Nc1ccc2c(c1)NC(C(=O)Nc1cccc(-c3ccc(F)cc3C(F)(F)F)c1)C2` (stereo not drawn) [Example 262, N-(4′-fluoro-2′-(trifluoromethyl)-[1,1′-biphenyl]-3-yl)-6-(methylsulfonamido)indoline-2-carboxamide], the IC50 in assay [1] is 9.8 µM; in assay [2], 5.3 µM; in assay [3] it was over 50 µM.

With `CC(C)(C)OC(=O)n1c(C(=O)Nc2cccc(-c3ccccc3C(F)(F)F)c2)cc2ccc([N+](=O)[O-])cc21` [Example 263, tert-butyl 6-nitro-2-((2′-(trifluoromethyl)-[1,1′-biphenyl]-3-yl)carbamoyl)-1H-indole-1-carboxylate], the half-maximal inhibitory concentration (IC50) in assay [1] is 8 µM; in assay [2], over 10 µM; in assay [3] it was over 50 µM.

As for `O=C(Nc1cccc(-c2ccccc2C(F)(F)F)c1)c1cc2ccc(NS(=O)(=O)CC(F)(F)F)cc2[nH]1` [Example 264, 6-(2,2,2-trifluoroethylsulfonamido)-N-(2′-(trifluoromethyl)-[1,1′-biphenyl]-3-yl)-1H-indole-2-carboxamide], the figures for the IC50 in assay [1], in assay [2] and in assay [3] were 6.2 µM, 1.9 µM and 13 µM, respectively.

As for `NS(=O)(=O)Nc1ccc2cc(C(=O)Nc3cccc(-c4ccccc4C(F)(F)F)c3)[nH]c2c1` [Example 265, 6-(sulfamoylamino)-N-(2′-(trifluoromethyl)-[1,1′-biphenyl]-3-yl)-1H-indole-2-carboxamide], the values for the IC50 in assay [1], in assay [2] and in assay [3] were over 10 µM, 4.2 µM and 11.4 µM, respectively.

With `CS(=O)(=O)Nc1ccc2c(C(=O)Nc3cccc(-c4ccccc4C(F)(F)F)c3)c[nH]c2c1` [Example 266, 6-(methylsulfonamido)-N-(2′-(trifluoromethyl)-[1,1′-biphenyl]-3-yl)-1H-indole-3-carboxamide], the results for the IC50 in assay [1], in assay [2] and in assay [3] were over 10 µM, 6.8 µM and 8.5 µM, respectively.

For the compound `CN(C)S(=O)(=O)Nc1ccc2cc(C(=O)Nc3cccc(-c4ccccc4C(F)(F)F)c3)[nH]c2c1` [Example 267, 6-((N,N-dimethylsulfamoyl)amino)-N-(2′-(trifluoromethyl)-[1,1′-biphenyl]-3-yl)-1H-indole-2-carboxamide], the results for the half-inhibitory concentration (IC50) in assay [1], in assay [2] and in assay [3] were 3.2 µM, 2 µM and 9.2 µM, respectively.

In the case of `O=C(Nc1cccc(-c2ccccc2C(F)(F)F)c1)c1cc2ccc(NS(=O)(=O)C(F)(F)F)cc2[nH]1` [Example 268, N-(2′-(trifluoromethyl)-[1,1′-biphenyl]-3-yl)-6-(trifluoromethylsulfonamido)-1H-indole-2-carboxamide], the IC50 in assay [1] was over 10 µM; in assay [2] it was over 10 µM; in assay [3], 27.1 µM.

As to `Nc1ccc2cc(C(=O)Nc3cccc(-c4ccc(F)cc4F)c3)[nH]c2c1` [Example 271, 6-amino-N-(2′,4′-difluoro-[1,1′-biphenyl]-3-yl)-1H-indole-2-carboxamide], the figures for the IC50 in assay [1], in assay [2] and in assay [3] were 8.6 µM, 5.9 µM and 26.1 µM, respectively.

For `CS(=O)(=O)Nc1ccc2[nH]c(C(=O)Nc3cccc(-c4ccc(F)cc4F)c3)cc2c1` [Example 272, N-(2′,4′-difluoro-[1,1′-biphenyl]-3-yl)-5-(methylsulfonamido)-1H-indole-2-carboxamide], the 50% inhibitory concentration (IC50) is 2.6 µM in assay [1], 0.5 µM in assay [2] and 18.8 µM in assay [3].

As to `O=C(Nc1cccc(-c2ccc(F)cc2F)c1)c1cc2ccc(NS(=O)(=O)CC(F)(F)F)cc2[nH]1` [Example 273, N-(2′,4′-difluoro-[1,1′-biphenyl]-3-yl)-6-(2,2,2-trifluoroethylsulfonamido)-1H-indole-2-carboxamide], the half-inhibitory concentration (IC50) in assay [1] came to 4.1 µM; in assay [2], 2.2 µM; in assay [3], 10 µM.

For `NS(=O)(=O)Nc1ccc2cc(C(=O)Nc3cccc(-c4ccc(F)cc4F)c3)[nH]c2c1` [Example 274, N-(2′,4′-difluoro-[1,1′-biphenyl]-3-yl)-6-(sulfamoylamino)-1H-indole-2-carboxamide], the IC50 in assay [1] was over 10 µM; in assay [2], over 10 µM; in assay [3] it was 17.9 µM.

For the compound `CN(C)S(=O)(=O)Nc1ccc2cc(C(=O)Nc3cccc(-c4ccc(F)cc4F)c3)[nH]c2c1` [Example 276, N-(2′,4′-difluoro-[1,1′-biphenyl]-3-yl)-6-((N,N-dimethylsulfamoyl)amino)-1H-indole-2-carboxamide], the 50% inhibitory concentration (IC50) in assay [1] was 1.3 µM; in assay [2] it was 3.1 µM; in assay [3], 11.9 µM.

As to `CS(=O)(=O)Nc1ccc2cc(C(=O)Nc3cccc(-c4ccc(F)cc4C(F)(F)F)c3)[nH]c2c1` [Example 277, N-(4′-fluoro-2′-(trifluoromethyl)-[1,1′-biphenyl]-3-yl)-6-(methylsulfonamido)-1H-indole-2-carboxamide], the IC50 in assay [1] amounted to 1.8 µM; in assay [2] it was 0.38 µM; in assay [3], 2.1 µM.

As to `O=C(Nc1cc(-c2ccc(F)cc2F)ccn1)c1cc2ccc(NS(=O)(=O)C3CC3)cc2[nH]1` [Example 278, 6-(cyclopropanesulfonamido)-N-(4-(2,4-difluorophenyl)pyridin-2-yl)-1H-indole-2-carboxamide], the concentration for half-maximal inhibition (IC50) in assay [1] turned out to be 5.9 µM; in assay [2] it was 4.5 µM; in assay [3], 20 µM.

As to `CS(=O)(=O)Nc1ccc2cc(C(=O)Nc3cc(-c4ccc(F)cc4F)ccn3)[nH]c2c1` [Example 279, N-(4-(2,4-difluorophenyl)pyridin-2-yl)-6-(methylsulfonamido)-1H-indole-2-carboxamide], the concentration for half-maximal inhibition (IC50) in assay [1] was over 10 µM; in assay [2] it was 6.2 µM; in assay [3], 40.7 µM.

Consider `CN(C(=O)c1cc2ccc(NS(C)(=O)=O)cc2[nH]1)c1cccc(-c2ccc(F)cc2F)c1` [Example 280, N-(2′,4′-difluoro-[1,1′-biphenyl]-3-yl)-N-methyl-6-(methylsulfonamido)-1H-indole-2-carboxamide], for which the IC50 turned out to be 2.7 µM in assay [1], 1.7 µM in assay [2] and 2.7 µM in assay [3].

On to `COc1ccc(C(F)(F)F)c(-c2cccc(NC(=O)c3cc4ccc(NS(C)(=O)=O)cc4[nH]3)c2)c1` [Example 281, N-(5′-methoxy-2′-(trifluoromethyl)-[1,1′-biphenyl]-3-yl)-6-(methylsulfonamido)-1H-indole-2-carboxamide], for which the IC50 was over 10 µM in assay [1], 7.1 µM in assay [2] and 16.6 µM in assay [3].

In the case of `COc1ccc(C(F)(F)F)c(-c2cccc(NC(=O)c3cc4ccc([N+](=O)[O-])cc4[nH]3)c2)c1` [Example 282, N-(5′-methoxy-2′-(trifluoromethyl)-[1,1′-biphenyl]-3-yl)-6-nitro-1H-indole-2-carboxamide], the IC50 is over 10 µM in assay [1], over 10 µM in assay [2] and 23.8 µM in assay [3].

On to `CS(=O)(=O)Nc1ccc2cc(C(=O)Nc3cccc(-c4ccc(S(N)(=O)=O)cc4C(F)(F)F)c3)[nH]c2c1` [Example 283, 6-(methylsulfonamido)-N-(4′-sulfamoyl-2′-(trifluoromethyl)-[1,1′-biphenyl]-3-yl)-1H-indole-2-carboxamide], for which the IC50 in assay [1] is over 10 µM; in assay [2], 7.4 µM; in assay [3], 18.2 µM.
